# Tests used:
# [1] = test system: spontaneously hypertensive male rats, strain MHS; assay: Anti-hypertensive activity in spontaneously hypertensive rats (MHS), blood pressure and heart rate measured at the tail; format: in vivo, rat (spontaneously hypertensive; details: for Change in BP, 1st day, 1 hr after dose / Change in HR, 1st day, 1 hr after dose / Change in BP, 1st day, 5 hrs after dose / Change in HR, 1st day, 5 hrs after dose / Change in BP, 4th day, 1 hr after dose / Change in HR, 4th day, 1 hr after dose / Change in BP, 4th day, 5 hrs after dose / Change in HR, 4th day, 5 hrs after dose: mean of 4 animals; for Antihypertensive activity compared with Hydralazine, 1st day / Antihypertensive effect compared with Hydralazine, 4th day / Tolerance after repeated administration / Activity compared with α-methyl-DOPA: 355/1165 2 mg/kg; for Antihypertensive activity compared with Hydralazine, 1st day / Antihypertensive effect compared with Hydralazine, 4th day: 355/1226 3 mg/kg per os vs Hydralazine 3 mg/kg per os; for Tolerance after repeated administration: four days, 355/1226 3 mg/kg, 355/1225 and 355/1229 5 mg/kg per os; for Activity compared with α-methyl-DOPA: 355/1226 3 mg/kg per os
# Experimental: Four spontaneously hypertensive male rats, strains MHS, weighing 250-300 g for each group were used.
# The animals were treated for four consecutive days. Drugs were administered by gastric gavage, suspended in 5% arabic gum (0.2 ml/100 g body weight). Blood pressure (BP) and heart rate (HR) were measured at the tail by BP Recorder W+W. Blood pressure and heart rate were measured on the 1st and 4th day of treatment 1 hour before and 1 and 5 hours after drug administration.
# *Data of LD50 from the literature. In Tables 1 and 2 are reported
# the results of the study of the activity of compounds 355/1165 and
# 355/1166 upon the BP and HR (measured indirectly by means of a tail cuff)
# of spontaneous hypertensive rats, MHS strain (4 rats each group). The
# compounds were given orally, once a day for 4 consecutive days.
# [2] = test system: male mice; details: data of LD50 from the literature; cited from earlier work
# [3] = test system: spontaneously hypertensive rats (Okamoto strain); assay: Anti-hypertensive activity in conscious spontaneously hypertensive rats (Okamoto), carotid artery catheter; format: in vivo, rat (spontaneously hypertensive; details: for Change in blood pressure after treatment, 30' / Change in heart rate after treatment, 30' / Change in blood pressure after treatment, 60' / Change in heart rate after treatment, 60' / Change in blood pressure after treatment, 120' / Change in heart rate after treatment, 120' / Change in blood pressure after treatment, 240' / Change in heart rate after treatment, 240' / Change in blood pressure after treatment, 360' / Change in heart rate after treatment, 360': mean of 6 animals; for Effect on heart rate: oral (Table 4)
# Experimental: Blood pressure recordings were made in conscious hypertensive unrestrained rats weighing approximately 300 g, via a catheter cronically inserted into the left common carotid artery. Implantation of arterial cannula was made under sodium pentobarbital anesthesia (50 mg/kg i.p.). A 1 cm long incision was made through the previously shaved ventral surface of the neck and the tissues overlying the trachea parted by blunt dissection to reveal the carotid artery. The polyethylene catheter used was made with PE 50 tubing, previously filled with saline containing 250 I.U./ml heparin. The tip of the cannula was pushed at least 2 cm inside the vessel toward the heart. The cannula was then firmly tied and passed beneath the skin to emerge from a small incision in the back of the neck. During the postoperative period and before the start of each recording session, the cannula was flushed through daily with saline containing heparin (250 U.I./ml). The experiments were performed two days after surgery. Drugs were administered by gastric gavage.
# [4] = Acute (orientative) oral toxicity in mice; details: mouse, in vivo
# Source text: The male mice for each group were orally treated with drugs at different dose levels for the determination of orientative toxicity.
compound,measurement,setting,value
"C[C@](N)(Cc1ccc(O)c(O)c1)C(=O)O [α-Methyl-DOPA, reference compound]","Change in BP, 1st day, 1 hr after dose","[1]; MHS rats, 30 mg/kg os",-27 mmHg
same,"Change in HR, 1st day, 1 hr after dose","[1]; MHS rats, 30 mg/kg os",+33 b/min
same,"Change in BP, 1st day, 5 hrs after dose","[1]; MHS rats, 30 mg/kg os",-4 mmHg
same,"Change in HR, 1st day, 5 hrs after dose","[1]; MHS rats, 30 mg/kg os",+36 b/min
same,"Change in BP, 4th day, 1 hr after dose","[1]; MHS rats, 30 mg/kg os",-2 mmHg
same,"Change in HR, 4th day, 1 hr after dose","[1]; MHS rats, 30 mg/kg os",+50 b/min
same,"Change in BP, 4th day, 5 hrs after dose","[1]; MHS rats, 30 mg/kg os",0 mmHg
same,"Change in HR, 4th day, 5 hrs after dose","[1]; MHS rats, 30 mg/kg os",+20 b/min
same,"Change in BP, 1st day, 1 hr after dose","[1]; MHS rats, 100 mg/kg os",-6 mmHg
same,"Change in HR, 1st day, 1 hr after dose","[1]; MHS rats, 100 mg/kg os",+73 b/min
same,"Change in BP, 1st day, 5 hrs after dose","[1]; MHS rats, 100 mg/kg os",-22 mmHg
same,"Change in HR, 1st day, 5 hrs after dose","[1]; MHS rats, 100 mg/kg os",+40 b/min
same,"Change in BP, 4th day, 1 hr after dose","[1]; MHS rats, 100 mg/kg os",-19 mmHg
same,"Change in HR, 4th day, 1 hr after dose","[1]; MHS rats, 100 mg/kg os",+70 b/min
same,"Change in BP, 4th day, 5 hrs after dose","[1]; MHS rats, 100 mg/kg os",-31 mmHg
same,"Change in HR, 4th day, 5 hrs after dose","[1]; MHS rats, 100 mg/kg os",+20 b/min
same,Effect on heart rate,"[1]; MHS rats, oral, all doses treated (Table 2)",no effect on heart rate
same,LD50 (orientative toxicity in mice),[2],5300 mg/kg per os
"CN1CC(CC(C#N)C(N)=O)C2Cc3cccc4[nH]cc(c34)CC21 (stereo not drawn) [355/1165, 2-Cyano-3-[trans-5(10→9)abeo-6-methyl-ergoline-8β]-propionamide]","Change in BP, 1st day, 1 hr after dose","[1]; MHS rats, 0.5 mg/kg os",-13 mmHg
same,"Change in HR, 1st day, 1 hr after dose","[1]; MHS rats, 0.5 mg/kg os",-25 b/min
same,"Change in BP, 1st day, 5 hrs after dose","[1]; MHS rats, 0.5 mg/kg os",-17 mmHg
same,"Change in HR, 1st day, 5 hrs after dose","[1]; MHS rats, 0.5 mg/kg os",-25 b/min
same,"Change in BP, 4th day, 1 hr after dose","[1]; MHS rats, 0.5 mg/kg os",-17 mmHg
same,"Change in HR, 4th day, 1 hr after dose","[1]; MHS rats, 0.5 mg/kg os",-30 b/min
same,"Change in BP, 4th day, 5 hrs after dose","[1]; MHS rats, 0.5 mg/kg os",-3 mmHg
same,"Change in HR, 4th day, 5 hrs after dose","[1]; MHS rats, 0.5 mg/kg os",-35 b/min
same,"Change in BP, 1st day, 1 hr after dose","[1]; MHS rats, 1 mg/kg os",-15 mmHg
same,"Change in HR, 1st day, 1 hr after dose","[1]; MHS rats, 1 mg/kg os",-20 b/min
same,"Change in BP, 1st day, 5 hrs after dose","[1]; MHS rats, 1 mg/kg os",-19 mmHg
same,"Change in HR, 1st day, 5 hrs after dose","[1]; MHS rats, 1 mg/kg os",-15 b/min
same,"Change in BP, 4th day, 1 hr after dose","[1]; MHS rats, 1 mg/kg os",-30 mmHg
same,"Change in HR, 4th day, 1 hr after dose","[1]; MHS rats, 1 mg/kg os",-27 b/min
same,"Change in BP, 4th day, 5 hrs after dose","[1]; MHS rats, 1 mg/kg os",-42 mmHg
same,"Change in HR, 4th day, 5 hrs after dose","[1]; MHS rats, 1 mg/kg os",-20 b/min
same,"Change in BP, 1st day, 1 hr after dose","[1]; MHS rats, 2 mg/kg os",-25 mmHg
same,"Change in HR, 1st day, 1 hr after dose","[1]; MHS rats, 2 mg/kg os",-47 b/min
same,"Change in BP, 1st day, 5 hrs after dose","[1]; MHS rats, 2 mg/kg os",-53 mmHg
same,"Change in HR, 1st day, 5 hrs after dose","[1]; MHS rats, 2 mg/kg os",-80 b/min
same,"Change in BP, 4th day, 1 hr after dose","[1]; MHS rats, 2 mg/kg os",-33 mmHg
same,"Change in HR, 4th day, 1 hr after dose","[1]; MHS rats, 2 mg/kg os",-48 b/min
same,"Change in BP, 4th day, 5 hrs after dose","[1]; MHS rats, 2 mg/kg os",-45 mmHg
same,"Change in HR, 4th day, 5 hrs after dose","[1]; MHS rats, 2 mg/kg os",-55 b/min
same,Effect on BP,"[1]; MHS rats, 0.5, 1 and 2 mg/kg per os, 1st and 4th day",significantly lowers BP on the 1st and 4th day after the treatment
same,"Antihypertensive activity compared with Hydralazine, 1st day",[1]; MHS rats,more marked antihypertensive activity
same,"Antihypertensive effect compared with Hydralazine, 4th day",[1]; MHS rats,even greater effect
same,Tolerance after repeated administration,[1]; MHS rats,tolerance does not occur after repeated administration
same,Activity compared with α-methyl-DOPA,[1]; MHS rats,50 times
same,"Change in blood pressure after treatment, 30'",[3]; 1 mg/kg os,-21 mmHg
same,"Change in heart rate after treatment, 30'",[3]; 1 mg/kg os,-25 b/min
same,"Change in blood pressure after treatment, 60'",[3]; 1 mg/kg os,-29 mmHg
same,"Change in heart rate after treatment, 60'",[3]; 1 mg/kg os,-45 b/min
same,"Change in blood pressure after treatment, 120'",[3]; 1 mg/kg os,-33 mmHg
same,"Change in heart rate after treatment, 120'",[3]; 1 mg/kg os,-52 b/min
same,"Change in blood pressure after treatment, 240'",[3]; 1 mg/kg os,-26 mmHg
same,"Change in heart rate after treatment, 240'",[3]; 1 mg/kg os,-8 b/min
same,"Change in blood pressure after treatment, 360'",[3]; 1 mg/kg os,-23 mmHg
same,"Change in heart rate after treatment, 360'",[3]; 1 mg/kg os,+18 b/min
same,Activity compared with hydralazine,[3]; 1 mg/kg per os,3 times
same,Hypotensive activity,[3]; 1 mg/kg per os,marked and long lasting hypotensive activity
same,Effect on heart rate,[3],slight bradycardia and never tachicardia
same,LD50 at 168 h,[4],> 1000 mg/kg
"CN1CC(CCC(N)=O)C2Cc3cccc4[nH]cc(c34)CC21 (stereo not drawn) [355/1226, Trans-5(10→9)abeo-6-methyl-ergoline-8β-propionamide]","Change in BP, 1st day, 1 hr after dose","[1]; MHS rats, 1 mg/kg os",-32 mmHg
same,"Change in HR, 1st day, 1 hr after dose","[1]; MHS rats, 1 mg/kg os",-20 b/min
same,"Change in BP, 1st day, 5 hrs after dose","[1]; MHS rats, 1 mg/kg os",-27 mmHg
same,"Change in HR, 1st day, 5 hrs after dose","[1]; MHS rats, 1 mg/kg os",+3 b/min
same,"Change in BP, 4th day, 1 hr after dose","[1]; MHS rats, 1 mg/kg os",-21 mmHg
same,"Change in HR, 4th day, 1 hr after dose","[1]; MHS rats, 1 mg/kg os",-5 b/min
same,"Change in BP, 4th day, 5 hrs after dose","[1]; MHS rats, 1 mg/kg os",-42 mmHg
same,"Change in HR, 4th day, 5 hrs after dose","[1]; MHS rats, 1 mg/kg os",-13 b/min
same,"Change in BP, 1st day, 1 hr after dose","[1]; MHS rats, 3 mg/kg os",-47 mmHg
same,"Change in HR, 1st day, 1 hr after dose","[1]; MHS rats, 3 mg/kg os",-20 b/min
same,"Change in BP, 1st day, 5 hrs after dose","[1]; MHS rats, 3 mg/kg os",-57 mmHg
same,"Change in HR, 1st day, 5 hrs after dose","[1]; MHS rats, 3 mg/kg os",-10 b/min
same,"Change in BP, 4th day, 1 hr after dose","[1]; MHS rats, 3 mg/kg os",-40 mmHg
same,"Change in HR, 4th day, 1 hr after dose","[1]; MHS rats, 3 mg/kg os",-40 b/min
same,"Change in BP, 4th day, 5 hrs after dose","[1]; MHS rats, 3 mg/kg os",-42 mmHg
same,"Change in HR, 4th day, 5 hrs after dose","[1]; MHS rats, 3 mg/kg os",-45 b/min
same,Effect on BP,"[1]; MHS rats, 1 and 3 mg/kg per os","decreases BP; especially with the higher dose, this effect is remarkable and long lasting"
same,"Antihypertensive activity compared with Hydralazine, 1st day",[1]; MHS rats,more marked antihypertensive activity
same,"Antihypertensive effect compared with Hydralazine, 4th day",[1]; MHS rats,even greater effect
same,Tolerance after repeated administration,[1]; MHS rats,tolerance does not occur after repeated administration
same,Activity compared with α-methyl-DOPA,[1]; MHS rats,50 times
same,"Change in blood pressure after treatment, 30'",[3]; 3 mg/kg os,-19 mmHg
same,"Change in heart rate after treatment, 30'",[3]; 3 mg/kg os,-33 b/min
same,"Change in blood pressure after treatment, 60'",[3]; 3 mg/kg os,-28 mmHg
same,"Change in heart rate after treatment, 60'",[3]; 3 mg/kg os,-30 b/min
same,"Change in blood pressure after treatment, 120'",[3]; 3 mg/kg os,-40 mmHg
same,"Change in heart rate after treatment, 120'",[3]; 3 mg/kg os,-23 b/min
same,"Change in blood pressure after treatment, 240'",[3]; 3 mg/kg os,-32 mmHg
same,"Change in heart rate after treatment, 240'",[3]; 3 mg/kg os,-16 b/min
same,"Change in blood pressure after treatment, 360'",[3]; 3 mg/kg os,-25 mmHg
same,"Change in heart rate after treatment, 360'",[3]; 3 mg/kg os,+4 b/min
same,Hypotensive activity compared with 355/1165 and 355/1166,[3]; 3 mg/kg per os,intermediate activity between compound 355/1165 and compound 355/1166
same,Effect on heart rate,[3],slight bradycardia and never tachicardia
same,LD50 at 168 h,[4],> 800 mg/kg
